Results reported in patent US20240252457A1, “Treatment or Prevention of Ischaemia Reperfusion Injury” (Cambridge Enterprise Limited, priority 2021, published 2024).
Entries after “also recorded” stand apart in the source; their conditions may differ.

Assays:
[1] = target: T1, MCT1 (Mus musculus, UniProt P53986); assay: Malonate levels in Langendorff hearts perfused at pH 6 with DSM ± lactate or MCT1 inhibitor; set-up: species or system murine; conditions: pH 6, 5 min, 5 mM DSM; lactate 50 mM, AR-C141990 10 μM
T1 construct: from tissue; host or cells: isolated Langendorff-perfused murine heart
T1 sequence (P53986 1-493): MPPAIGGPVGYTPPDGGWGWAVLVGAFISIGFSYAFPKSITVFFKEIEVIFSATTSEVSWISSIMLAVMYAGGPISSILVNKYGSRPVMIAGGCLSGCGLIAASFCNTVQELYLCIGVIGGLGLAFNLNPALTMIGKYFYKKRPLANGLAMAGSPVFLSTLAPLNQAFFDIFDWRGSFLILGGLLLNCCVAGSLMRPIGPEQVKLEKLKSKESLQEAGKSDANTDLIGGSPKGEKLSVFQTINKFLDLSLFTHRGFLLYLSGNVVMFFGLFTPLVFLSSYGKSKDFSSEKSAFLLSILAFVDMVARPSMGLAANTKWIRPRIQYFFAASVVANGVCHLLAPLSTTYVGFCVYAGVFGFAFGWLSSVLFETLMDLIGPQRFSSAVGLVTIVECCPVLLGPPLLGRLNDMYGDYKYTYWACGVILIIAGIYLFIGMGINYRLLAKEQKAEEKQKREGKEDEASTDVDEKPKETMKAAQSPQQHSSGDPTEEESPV
T1 sequence (P18572 140-389 partner limits assumed): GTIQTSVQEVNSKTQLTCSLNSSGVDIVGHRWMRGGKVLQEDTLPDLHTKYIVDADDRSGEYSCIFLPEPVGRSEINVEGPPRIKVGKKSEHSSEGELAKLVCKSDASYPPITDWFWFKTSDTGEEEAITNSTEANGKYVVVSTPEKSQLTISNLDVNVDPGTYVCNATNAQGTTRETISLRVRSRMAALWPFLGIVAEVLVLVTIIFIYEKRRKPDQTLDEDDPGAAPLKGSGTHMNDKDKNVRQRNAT
Description: Malonate uptake into the Langendorff perfused heart was blocked by the MCT1 inhibitor AR-C141990, in the perfusion medium, and by excess lactate.

[2] = pKa and ionisation state; assay type: physicochemical; conditions: pH 6.4
Description: In 3A3OPA, one carboxylic acid has been replaced with a neutral amido group leaving a single carboxylic acid of pKa˜4.75. Thus, at pH 7.4 3A3OPA resembles the monocarboxylate form of malonate.

[3] = tested on: Langendorff heart; assay: Lactate levels in the Langendorff heart after 20 min ischemia and 1 min reperfusion; conditions: 5 mM DSM, 20 min ischemia
Description: Compared to reperfusion alone, lactate levels decreased in the malonate-treated hearts.

[4] = tested on: murine LAD MI model; assay: Infarct size in murine LAD MI model (TTC staining); assay type: in vivo
Procedure: Mice were subjected to left anterior descending coronary artery ligation heart attack model (30 min ischaemia, 2 hr reperfusion) and malonate infused either before the onset of ischaemia or during initial reperfusion. Infarct size was determined by staining the heart with triphenyltetrazolium chloride (mean±/−S.E.M., n=5-8).
Thus, malonate was confirmed to be cardioprotective when administered at the point of reperfusion after ischaemia.
Cyclosporin A is a known inhibitor of the mitochondrial permeability transition pore (PTP).

[5] = tested on: C2C12 cells; assay: Malonate / 3A3OPA uptake in C2C12 cells at different pH (LC-MS/MS); assay type: cell-based, mouse; conditions: for intracellular uptake, effect of lowered pH: 15 min, pH 6 vs 7.4 (and 8)
Procedure: C2C12 cells were incubated with malonate at pH 8, 7.4 or 6 and the levels within cells measured by LC-MS/MS (mean±/−S.E.M., n=4).
C2C12 cells were treated with either malonate or 3-amino-3-oxypropanoic acid at pH 7.4 or 6 and their intracellular levels measured by LC-MS/MS (mean±/−S.E.M., n=6).

[6] = tested on: murine Langendorff perfused heart; assay: Malonate uptake in Langendorff-perfused hearts (pH- and ischaemia-dependence, LC-MS/MS)
Procedure: Malonate (5 mM) was infused into Langendorff perfused mouse hearts at either pH 7.4 or 6. The heart flushed to remove vessel malonate and malonate levels measured by LC-MS/MS (mean±/−S.E.M., n=4).
Langendorff mouse hearts were reperfused with malonate (5 mM) after either 0, 5, 10, or 20 min ischaemia). The heart flushed to remove vessel malonate and malonate levels measured by LC-MS/MS (mean±/−S.E.M., n=4-5).

[7] = tested on: C2C12 mouse myoblast cells; assay: Malonate uptake in vitro in C2C12 cells (dose and time course); assay type: cell-based; conditions: for malonate uptake into cells (words): 0.25, 1 or 5 mM, 0 to 240 min; for intracellular malonate concentration: 5 min, cell volume 260 mg protein/ml
Procedure: We first explored whether malonate could be taken up by cells in culture. C2C12 mouse myoblast cells were plated at 300,000 cells/well and adhered overnight. […] Cells were extracted for mass spectrometry with 500 μl extraction buffer (50% methanol, 30% acetonitrile and 20% water) with 1 nmol ^13C-malonate internal standard centrifuged to remove insoluble debris.

[8] = tested on: MCAO model; assay: Transient middle cerebral artery occlusion (MCAO) stroke model; assay type: in vivo, mice; conditions: i.v. for 20 min starting just prior to reperfusion; 45 min ischaemia, 2 h reperfusion
Description: Male C57B16J mice, 6-8 weeks old, were anesthetized with 3% isoflurane and anaesthesia was maintained on 1.5-2% isoflurane. A Doppler flowmetry probe (Perimed, Sweden) was attached to the skull to continuously monitor the cerebral blood flow. Left common carotid artery (CCA) and left external carotid artery were exposed and permanently ligated. Left internal common carotid artery was clamped temporarily. Next, an incision was made on CCA and a filament with a silicon tip (0.22 mm in diameter, 2-3 mm in length, Doccol, USA) was inserted and guided forward into internal carotid artery until it reached middle cerebral artery (MCA). The occlusion of MCA was confirmed by seeing at least 70% drop in cerebral blood flow. […]
At the end of reperfusion, mice were sacrificed by cervical dislocation; brain was collected and sliced at 2 mm thicknesses and stained with 2% triphenyltetrazolium chloride in saline at 37 C for 10-15 min. […] The healthy tissue area (red-stained) in both hemispheres was measured using ImageJ. The infarct volume % was calculated by first calculating the volume of healthy tissue in each hemisphere (Σ area of each slice×thickness of slice), then by the formula: ((volume of healthy tissue in uninjured hemisphere−volume of healthy tissue in injured hemisphere)÷volume of healthy tissue in uninjured hemisphere)×100.

[9] = Malonate uptake in vivo, tissue levels after tail vein bolus; set-up: species or system mouse; conditions: 160 mg/kg tail vein bolus, 5 min
Procedure: For tissue analysis, tissues were weighed and extracted in 25 μl/mg extraction buffer containing internal standard and homogenised in a Precellys 24 homogeniser. Homogenates were centrifuged to remove insoluble debris. Extracts were analysed by LC-MS/MS and the levels of malonate assessed by interpolation of a malonate standard curve.

[10] = cited from earlier work
[11] = tested on: H9c2 myoblasts; assay: Intracellular malonate and succinate in H9c2 myoblasts at different pH (LC-MS/MS); assay type: cell-based; conditions: H9c2, DSM 1 or 5 mM, 15 min
[12] = cited from earlier work; remark: listed apart in the source

CC(C)Cn1c(=O)n(C)c(=O)c2c(C(=O)N3CC[C@@H](O)C3)c(Cc3ccnc4ccccc34)sc21 [AR-C141990]
effect on malonate uptake into the Langendorff perfused heart [1]: blocked

O=C([O-])CC(=O)[O-].[Na+].[Na+] [DSM, disodium malonate]
fraction in monocarboxylate form [2]: approximately 16% | lactate levels compared to reperfusion alone [3]: decreased | infarct size (cardioprotection) ([4]; 160 mg/kg infusion at reperfusion): cardioprotective | infarct size, cardioprotection in combination with cyclosporin A ([4]; DSM 160 mg/kg with cyclosporin A 10 mg/kg at reperfusion): additive to cyclosporin A alone | intracellular uptake, effect of lowered pH [5]: greatly enhanced | malonate uptake in heart after ischaemia ([6]; 0, 5, 10 or 20 min ischaemia, reperfused with 5 mM DSM pH 7.4): ischemic time-dependent uptake | malonate uptake in heart, infused at low pH vs neutral pH ([6]; 5 mM DSM, pH 6 vs pH 7.4): greatly enhanced | intracellular malonate levels ([7]; 5 mM DSM, after 5 min): ~2 nmol/mg protein | malonate uptake into cells (words) ([7]; listed as Malonate): both dose and time-dependent | malonate uptake into cells (words) ([7]; listed as disodium malonate): rapid malonate uptake | intracellular malonate concentration ([7]; 250 μM malonate): about 50 μM | intracellular malonate concentration ([7]; 5 mM malonate): ~500 µM | intracellular malonate levels ([7]; incubated with 250 μM disodium malonate): 0.2-0.4 nmol/mg protein | necrotic brain infarct volume [8]: decreased | tissue levels of malonate, brain [9]: uptake in the brain | tissue levels of malonate, heart [9]: significant amounts | tissue levels of malonate, kidney [9]: particularly high | tissue levels of malonate, liver [9]: significant amounts | protection against myocardial IR injury ([10]; small animal ex vivo and large animal models): protective | levels of malonate in the cell at pH 6 vs pH 7.4 or 8 [11]: significantly higher | succinate levels (malonate-dependent SDH inhibition) at low pH [11]: greater succinate accumulation

NC(=O)CC(=O)O [3A3OPA, 3-amino-3-oxypropanoic acid]
uptake into cells at pH 7.4 compared with malonate ([5]; 5 mM, pH 7.4): more 3A3OPA being taken up into cells at pH 7.4 than malonate | intracellular uptake, effect of lowered pH [5]: changed negligibly | pKa of single carboxylic acid [12]: ~4.75

CC(O)C(=O)O (stereo not shown) [lactate]
effect on malonate uptake into the Langendorff perfused heart [1]: blocked

COC(=O)CC(=O)OC [DMM, dimethyl malonate]
necrotic brain infarct volume [8]: not to be protective; also recorded: no significant difference | protection against IR injury ([10]; administered prior to and throughout ischaemia (WO 2016/001686)): protective
